Source: paper PMC7767381, “Exploring the Anti-Cancer Mechanism of Novel 3,4′-Substituted Diaryl Guanidinium Derivatives” (Pharmaceuticals, 2020)

Key:
[1] = tested on: HCT116 cells; assay: alamarBlue cell viability assay, HCT116; format: cell-based; details: Homo sapiens, HCT-116, 72 h, KRas mutant, read-out: HCT116 IC50 ± SEM
Excerpt: (§1) Cell viability and proliferation assays were used to evaluate the in vitro cytotoxicity of all synthesised compounds in a variety of different cancer cell lines using the alamarBlue® viability assay and the results are presented in Table 1 and Table 2. The sensitivity of cancer cells to drugs can often be compromised by PIK3CA, Ras and BRAF mutations. To determine whether such mutations are critical to the efficacy of our new compounds we tested them in a range of cancerous cell lines expressing different mutations. Firstly, we used the HL-60 (human promyelocytic leukaemia, NRas mutated) cell line for general cytotoxicity screening of all compounds. […] Lastly, toxicity against MCF-10A, which is a non-tumorigenic epithelial cell line, was also assessed for one of the most promising compounds (4). The graphs representing the viability results with the HL-60, MCF-7, HeLa, HCT-116, and HKH-2 cancer cell lines for compound 1 and derivatives 2, 3, and 4 are shown in Figures S7–S10 (ESI).
(§2) Cells were counted and seeded in 96-well plates at a density of 2 × 10^5 cells/mL for HL-60, 2.5 × 10^4 cells/mL for MCF-7, MCF10A and HeLa, 1 × 10^5 cells/mL for HCT116 and HKH-2, all of them in their respective media. The 96-well plates were then treated with a 1:100 dilution of stock concentrations of drugs or EtOH (1% v/v)/DMSO (0.1% v/v) as vehicle control in triplicate. Three blank wells containing 200 µL RPMI with no cells were also set-up as blanks. After a 72 h incubation, 20 µL of alamarBlue was added to each well. The plates were incubated in darkness at 37 °C for 4–5 h using a Molecular Devices microplate reader, the fluorescence (F) was then read at an excitation wavelength of 544 nm and an emission wavelength of 590 nm. Cell viability was then determined by subtracting the mean blank fluorescence (Fb) from the treated sample fluorescence (Fs) and expressing this as a percentage of the fluorescence of the blanked vehicle control (Fc). […] The results were then plotted as a nonlinear regression, sigmoidal dose-response curves on Prism, from which the IC50 value for each drug was determined.
The MCF-7 (human breast tumour) cell line was obtained from Prof. Mary Meegan, School of Pharmacy, TCD. It was maintained in Roswell Park Memorial Institute (RPMI) 1640 medium with stable glutamate (GlutaMax I) supplemented with 10% (v/v) fetal bovine serum (FBS), 1% (v/v) penicillin/ streptomycin (pen-strep) and 2 mM L-glutamine.
The HeLa (human epitheloid cervix carcinoma) cell line was obtained from Prof. Thorfinnur Gunnlaugsson, School of Chemistry TCD. It was maintainedin Dulbecco's Modified Eagle's Medium (DMEM) supplemented with 10% (v/v) fetal bovine serum (FBS) and 1%(v/v) penicillin/ streptomycin (pen-strep).
The HCT116and HKH-2 (human colon cancer cells) cell lines were obtained from Prof. James Murray, School of Biochemistry and Immunology TCD. They were maintainedin Dulbecco's Modified Eagle's Medium (DMEM) supplemented with 10% (v/v) fetal bovine serum (FBS), 1% (v/v) penicillin/ streptomycin (pen-strep), 1% (v/v) sodium pyruvate (NaPyr), 1% (v/v) L-glutamine (L-Glu) and, only for HKH-2, 0.6 mg/mL geneticine (G418).
MCF-10A (human breast epithelial) cell line was obtained from Prof. Mary Meegan, School of Pharmacy, TCD. […]
Cells were counted and seeded in 96 well plates at a density of 2 × 10^5 cells/mL for HL-60, 2.5× 10^4 cells/mL for MCF-7, MCF10A and HeLa, 1 × 10^5 cells/mL for HCT116 and HKH-2, all of them in their respective media. […]

[2] = tested on: HL-60 cells; assay: alamarBlue cell viability assay, HL-60; format: cell-based; details: Homo sapiens, HL-60, 72 h, alamarBlue, 72 h; read-out: HL-60 IC50 ± SEM
Excerpt: as §1
as §2, with “determined. […]” for “determined.”
Pharmacy, TCD. It was maintained in Roswell Park Memorial Institute (RPMI) 1640 medium with stable glutamate (GlutaMax I) supplemented with 10% (v/v) fetal bovine serum (FBS), 1% (v/v) penicillin/ streptomycin (pen-strep) and 2 mM L-glutamine. […]
4.4. AlamarBlue ® Cell Viability Assay
Cells were counted and seeded in 96 well plates at a density of 2 × 10^5 cells/mL for HL-60, 2.5× 10^4 cells/mL for MCF-7, MCF10A and HeLa, 1 × 10^5 cells/mL for HCT116 and HKH-2, all of them in their respective media. The 96 well plates were then treated with a 1:100 dilution of stock concentrations of drugs or EtOH (1% v/v)/DMSO (0.1% v/v) as vehicle control in triplicate.
Three blank wells containing 200 µL media with no cells were also set-up as blanks. After a 72 h incubation, 20 µL of AlamarBlue was added to each well. The plates were incubated in darkness at 37 °C for 4-5 h. Using a Molecular Devices microplate reader, the fluorescence (F) was then read at an excitation wavelength of 544 nm and an emission wavelength of 590 nm.
Cell viability was then determined by subtracting the mean blank fluorescence (Fb) from the treated sample fluorescence (Fs) and expressing this as a percentage of the fluorescence of the blanked vehicle control (Fc). […] The results were […]
then plotted as a nonlinear regression, sigmoidal dose-response curves on Prism, from which the IC50 value for each drug was determined.
Fs − Fb x 100 = % Cell Viability
60 cell line in a dose-dependent manner.
(1 picture or pasted object on this page, not shown here)

Cl.Cl.N=C(N)Nc1ccc(Oc2cccc(NC(=N)Nc3ccc(Cl)c(C(F)(F)F)c3)c2)cn1 [Compound 2, 1-(4-Chloro-3-(trifluoromethyl)phenyl)-3-(3-((6-guanidinopyridin-3-yl)oxy)phenyl) guanidine dihydrochloride]
IC50 [1]: 7.29 ± 0.53 µM
melting point: 169 to 171 °C
IC50 [2]: 2.36 ± 0.14 µM

Cl.N=C(N)Nc1ccc(Oc2cccc(Nc3ccc(Cl)c(C(F)(F)F)c3)c2)cc1 [Compound 3, 1-(4-(3-((4-Chloro-3-(trifluoromethyl)phenyl)amino)phenoxy)phenyl)guanidine hydrochloride]
IC50 [1]: 15.9 ± 2.73 µM
melting point: 58 to 60 °C

Cl.N=C(N)Nc1ccc(Oc2cccc(Nc3ccc(Cl)c(C(F)(F)F)c3)c2)cn1 [Compound 4, 1-(5-(3-((4-Chloro-3-(trifluoromethyl)phenyl)amino)phenoxy)pyridin-2-yl)guanidine hydrochloride]
IC50 [1]: 4.59 ± 0.4 µM
melting point: 89 to 91 °C
IC50 [2]: 3.48 ± 0.28 µM
